Assay [1] concerns the target Recombinant human MALT-1 (amino acids 340-824) (Homo sapiens (Human), UniProt Q9UDY8). As to the kind of experiment: MALT-1 inhibition assay (fluorogenic substrate Ac-LRSR-Rh110-DP). It is filed as biochemical. As to conditions: recombinant human MALT-1, substrate Ac-LRSR-Rh110-DP. The essentials: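 Reactions were started with fluorogenic substrate Ac-LRSR-Rh110-DP (10 μM final) against 3 nM enzyme and kept dark at 25° C for 60 minutes. IC50 values came from 4-parameter logistic fits of percent inhibition calculated from relative fluorescence units.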

Assay [2] concerns IL-2 secretion by human effector memory T cells (TEM). Description: Effector memory T cells IL-2 release assay. As to conditions: T-cell; human CD4+ effector memory T cells, CD3/CD28 bead stimulation, 24 h; read-out: CD4TC IL2 IC50. The class given is cell-based. The essentials:
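Human CD4+ effector memory T cells from healthy-donor buffy coats were stimulated with anti-CD3/CD28 Dynabeads and exposed to 10 semi-log compound doses (0.1% DMSO) for 24 h at 37 °C. Supernatant IL-2 was measured by HTRF, and IC50 came from a 4-parameter logistic fit to maximal IL-2. Viability was checked by flow cytometry.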

Recombinant human MALT-1 (amino acids 340-824), sequence (Q9UDY8 340-824): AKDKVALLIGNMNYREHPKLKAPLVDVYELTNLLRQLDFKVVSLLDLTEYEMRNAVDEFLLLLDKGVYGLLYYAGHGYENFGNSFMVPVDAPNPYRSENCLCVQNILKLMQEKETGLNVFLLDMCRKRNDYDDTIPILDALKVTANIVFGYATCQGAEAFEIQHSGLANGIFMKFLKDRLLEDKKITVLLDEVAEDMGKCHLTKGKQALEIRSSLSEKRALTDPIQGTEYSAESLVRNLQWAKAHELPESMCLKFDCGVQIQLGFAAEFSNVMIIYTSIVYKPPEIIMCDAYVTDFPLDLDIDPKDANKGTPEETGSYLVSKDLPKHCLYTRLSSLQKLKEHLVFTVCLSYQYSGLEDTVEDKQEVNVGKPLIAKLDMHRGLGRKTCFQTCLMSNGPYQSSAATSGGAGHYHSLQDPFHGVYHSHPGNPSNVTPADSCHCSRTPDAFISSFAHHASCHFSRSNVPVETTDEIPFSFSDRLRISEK

`CN(C(=O)C1CCS(=O)(=O)CC1)[C@@H](c1ccc(N2CCCc3c2cnc2cc(Cl)nn32)cc1)C(C)(F)F` [CPD0072803, N-[(1S)-1-(4-{4-chloro-2,3,7,10-tetraazatricyclo[7.4.0.0^2,6]trideca-1(9),3,5,7-tetraen-10-yl}phenyl)-2,2-difluoropropyl]-N-methyl-1,1-dioxo-1λ^6-thiane-4-carboxamide]: the IC50 – broadly, the point on the concentration scale where inhibition reaches its midpoint – in assay [1] was found to be 0.322 µM; in assay [2], 1.89 µM.
In the same order, the values of `CO[C@H](C)c1c(Nc2ccc([C@H](N(C)C(=O)C3CCS(=O)(=O)CC3)C(F)(F)F)cc2)cnn2cc(Cl)nc12` [CPD0072850] are 0.043 µM and 0.114 µM.
`CN(C(=O)C1C2CS(=O)(=O)CC21)[C@@H](c1ccc(N2CCCc3c2cnc2cc(Cl)nn32)cc1)C(F)(F)F` (stereo partly drawn) [CPD0072801, N-[(1S)-1-(4-{4-chloro-2,3,7,10-tetraazatricyclo[7.4.0.0^2,6]trideca-1(9),3,5,7-tetraen-10-yl}phenyl)-2,2,2-trifluoroethyl]-N-methyl-3,3-dioxo-3λ^6-thiabicyclo[3.1.0]hexane-6-carboxamide]: the IC50 in assay [1] is 0.095 µM; in assay [2], 0.147 µM.
As for `CN(C(=O)C1CCS(=O)(=O)CC1)[C@@H](c1ccc(N2CCCc3c2cnc2c(Cl)cnn32)cc1)C(F)(F)F` [CPD0021751, N-[(1S)-1-(4-{5-chloro-2,3,7,10-tetraazatricyclo[7.4.0.0^2,6]trideca-1(9),3,5,7-tetraen-10-yl}phenyl)-2,2,2-trifluoroethyl]-N-methyl-1,1-dioxo-1λ^6-thiane-4-carboxamide], the IC50 stood at 2.12 µM in assay [1] and 3.27 µM in assay [2].
In the same order, the values of `CN(C(=O)C1(C#N)CCS(=O)(=O)CC1)[C@@H](c1ccc(N2CCCc3c2cnc2cc(Cl)nn32)cc1)C(F)(F)F` [CPD0073553, N-[(1S)-1-(4-{4-chloro-2,3,7,10-tetraazatricyclo[7.4.0.0^2,6]trideca-1(9),3,5,7-tetraen-10-yl}phenyl)-2,2,2-trifluoroethyl]-4-cyano-N-methyl-1,1-dioxo-1λ^6-thiane-4-carboxamide] are 0.05 µM and 0.077 µM.
On to `CN(C(=O)[C@@H]1COC(=O)N1C)[C@@H](c1ccc(N2CCCc3c2cnc2cc(Cl)nn32)cc1)C(F)(F)F` (relative stereo) [CPD0073571, (4rel-S)-N-[(1S)-1-(4-{4-chloro-2,3,7,10-tetraazatricyclo[7.4.0.0^2,6]trideca-1(9),3,5,7-tetraen-10-yl}phenyl)-2,2,2-trifluoroethyl]-N,3-dimethyl-2-oxo-1,3-oxazolidine-4-carboxamide], for which the IC50 in assay [1] is 0.052 µM; in assay [2], 0.153 µM.
On to `COC(C)c1c(Nc2ccc([C@H](N(C)C(=O)C3CCS(=O)(=O)CC3)C(F)(F)F)cc2)cnc2ccc(Cl)nc12` (stereo partly drawn) [CPD0019496, N-[(1S)-1-(4-{[6-chloro-4-(1-methoxyethyl)-1,5-naphthyridin-3-yl]amino}phenyl)-2,2,2-trifluoroethyl]-N-methyl-1,1-dioxo-1λ^6-thiane-4-carboxamide], for which the IC50 in assay [1] was 0.112 µM; in assay [2], 0.022 µM.
Taken in the same sequence, the figures for `CC(C)C(=O)N(C)[C@@H](c1ccc(N2CCCc3c2cnc2cc(Cl)nn32)cc1)C(F)(F)F` [CPD0019340, N-[(1S)-1-(4-{4-chloro-2,3,7,10-tetraazatricyclo[7.4.0.0^2,6]trideca-1(9),3,5,7-tetraen-10-yl}phenyl)-2,2,2-trifluoroethyl]-N,2-dimethylpropanamide] were 0.13 µM and 0.139 µM.
Taken in the same sequence, the figures for `CN1C[C@H](C(=O)N(C)[C@@H](c2ccc(N3CCCc4c3cnc3cc(Cl)nn43)cc2)C(F)(F)F)CCC1=O` (relative stereo) [CPD0073197, (3rel-R)-N-[(1S)-1-(4-{4-chloro-2,3,7,10-tetraazatricyclo[7.4.0.0^2,6]trideca-1(9),3,5,7-tetraen-10-yl}phenyl)-2,2,2-trifluoroethyl]-N,1-dimethyl-6-oxopiperidine-3-carboxamide] were 0.103 µM and 0.207 µM.
In the same order, the values of `CN(C(=O)C1CCS(=N)(=O)CC1)[C@@H](c1ccc(N2CC3(CC3)Cc3c2cnc2cc(Cl)nn32)cc1)C(F)(F)F` (stereo partly drawn) [CPD0073761, N-[(1S)-1-[4-(4-chlorospiro[2,3,7,10-tetrazatricyclo[7.4.0.0^2,6]trideca-1(9),3,5,7-tetraene-12,1′-cyclopropane]-10-yl)phenyl]-2,2,2-trifluoro-ethyl]-1-imino-N-methyl-1-oxo-thiane-4-carboxamide] are 0.078 µM and 0.317 µM.
On to `CN(C(=O)[C@@H]1CS(=O)(=O)CC12CC2)[C@@H](c1ccc(N2CCCc3c2cnc2cc(Cl)nn32)cc1)C(F)(F)F` (relative stereo) [CPD0073968, (7rel-R)-N-[(1S)-1-(4-{4-chloro-2,3,7,10-tetraazatricyclo[7.4.0.0^2,6]trideca-1(9),3,5,7-tetraen-10-yl}phenyl)-2,2,2-trifluoroethyl]-N-methyl-5,5-dioxo-5λ^6-thiaspiro[2.4]heptane-7-carboxamide], for which the results for the IC50 in assay [1] and in assay [2] were 0.1 µM and 0.199 µM, respectively.
Turning to `CC(=O)N1CCC(C(=O)N(C)[C@@H](c2ccc(N3CC[C@H](C)c4c3cnc3cc(Cl)nn43)cc2)C(F)(F)F)CC1` (relative stereo) [CPD0074566, 1-Acetyl-N-[(1S)-1-[4-[(13rel-R)-4-chloro-13-methyl-2,3,7,10-tetrazatricyclo[7.4.0.0^2,6]trideca-1(9),3,5,7-tetraen-10-yl]phenyl]-2,2,2-trifluoro-ethyl]-N-methyl-piperidine-4-carboxamide], the IC50 was 0.054 µM in assay [1] and 0.058 µM in assay [2].
In the same order, the values of `C[C@H]1CCN(c2ccc([C@H](N(C)C(=O)[C@H]3CC[S@@](=N)(=O)CC3)C(F)(F)F)cc2)c2cnc3cc(Cl)nn3c21` (relative stereo) [CPD0073194, (1rel-s,4rel-s)-N-[(1S)-1-{4-[(13rel-S)-4-chloro-13-methyl-2,3,7,10-tetraazatricyclo[7.4.0.0^2,6]trideca-1(9),3,5,7-tetraen-10-yl]phenyl}-2,2,2-trifluoroethyl]-1-imino-N-methyl-1-oxo-1λ^6-thiane-4-carboxamide] are 0.02 µM and 0.051 µM.
With `CN(C(=O)[C@H]1CC[S@](=N)(=O)CC1)[C@@H](c1ccc(N2CCCc3c2cnc2cc(Cl)nn32)cc1)C(F)(F)F` (relative stereo) [CPD0072529, (1rel-r,4rel-r)-N-[(1S)-1-(4-{4-chloro-2,3,7,10-tetraazatricyclo[7.4.0.0^2,6]trideca-1(9),3,5,7-tetraen-10-yl}phenyl)-2,2,2-trifluoroethyl]-1-imino-N-methyl-1-oxo-1λ^6-thiane-4-carboxamide], the IC50 was found to be 0.026 µM in assay [1] and 0.094 µM in assay [2].
For `CN(C(=O)[C@H]1C[C@H]([S@+](C)(=N)[O-])C1)[C@@H](c1ccc(N2CCCc3c2cnc2cc(Cl)nn32)cc1)C(F)(F)F` [CPD0073226, (1R,3s)-N-[(1S)-1-(4-{4-chloro-2,3,7,10-tetraazatricyclo[7.4.0.0^2,6]trideca-1(9),3,5,7-tetraen-10-yl}phenyl)-2,2,2-trifluoroethyl]-3-[(S)-imino(methyl)oxo-λ^6-sulfanyl]-N-methylcyclobutane-1-carboxamide], the IC50 in assay [1] is 0.06 µM; in assay [2], 0.105 µM.
